The supplement of paper PMC10307832

Legend:
Assay in all cases: relative viability (nuclei count vs DMSO), 5 days (fraction); higher = more cells survive
[1] = system: H3255
Outline: (§1)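 Cells from lung cancer lines were seeded into 1536-well plates and, one day later, dosed by pin tool. Treatments were either a single drug or a fixed dose of an anchor drug with five library-drug doses (not always all listed) in √10 steps. After 5 days, nuclei were stained in a one-step fixation (final 0.05% Triton X-100, 1% formaldehyde, 1 ug/ml Hoechst) and counted on 4× images, and relative viability is the treated-to-vehicle nuclei ratio, as the median of duplicate plates.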

[2] = system: HCC-827
Outline: as §1

[3] = system: NCI-H1915
Outline: as §1

[4] = system: LC-2-ad
Outline: as §1

[5] = system: NCI-H1792
Outline: as §1

[6] = system: EMC-BAC-2
Outline: as §1

[7] = system: HCC-15
Outline: as §1

[8] = system: PC-14
Outline: as §1

[9] = system: EKVX
Outline: as §1

[10] = system: LCLC-97TM1
Outline: as §1

[11] = system: NCI-H23
Outline: as §1

[12] = system: ChaGo-K-1
Outline: as §1

[13] = system: NCI-H1993
Outline: as §1

[14] = system: NCI-H1944
Outline: as §1

[15] = system: SK-LU-1
Outline: as §1

[16] = system: NCI-H460
Outline: as §1

[17] = system: NCI-H322M
Outline: as §1

[18] = system: EPLC-272H
Outline: as §1

[19] = system: NCI-H661
Outline: as §1

COCC1(CO)C(=O)C2CCN1CC2 (centres undefined) [PRIMA-1MET] + C[C@@H](Oc1cc(-c2cnn(C3CCNCC3)c2)cnc1N)c1c(Cl)ccc(F)c1Cl [Crizotinib] (partner 1 µM)
relative viability ([1]; first compound 0.2 µM): 0.898
relative viability ([1]; first compound 0.6325 µM): 0.682
relative viability ([1]; first compound 2 µM): 0.77
relative viability ([1]; first compound 6.325 µM): 0.991
relative viability ([1]; first compound 20 µM): 0.898
relative viability ([2]; first compound 0.2 µM): 1.06
relative viability ([2]; first compound 0.6325 µM): 0.813
relative viability ([2]; first compound 2 µM): 0.796
relative viability ([2]; first compound 6.325 µM): 0.978
relative viability ([2]; first compound 20 µM): 0.896
relative viability ([3]; first compound 0.2 µM): 0.975
relative viability ([3]; first compound 0.6325 µM): 0.703
relative viability ([3]; first compound 2 µM): 0.794
relative viability ([3]; first compound 6.325 µM): 0.912
relative viability ([3]; first compound 20 µM): 0.852
relative viability ([4]; first compound 0.2 µM): 0.484
relative viability ([4]; first compound 0.6325 µM): 0.434
relative viability ([4]; first compound 2 µM): 0.398
relative viability ([4]; first compound 6.325 µM): 0.39
relative viability ([4]; first compound 20 µM): 0.382
relative viability ([5]; first compound 0.2 µM): 1.08
relative viability ([5]; first compound 0.6325 µM): 0.884
relative viability ([5]; first compound 2 µM): 1.1
relative viability ([5]; first compound 6.325 µM): 0.991
relative viability ([5]; first compound 20 µM): 0.971
relative viability ([6]; first compound 0.2 µM): 0.837
relative viability ([6]; first compound 0.6325 µM): 0.779
relative viability ([6]; first compound 2 µM): 0.666
relative viability ([6]; first compound 6.325 µM): 0.771
relative viability ([6]; first compound 20 µM): 0.793
relative viability ([7]; first compound 0.2 µM): 0.925
relative viability ([7]; first compound 0.6325 µM): 0.786
relative viability ([7]; first compound 2 µM): 0.802
relative viability ([7]; first compound 6.325 µM): 0.807
relative viability ([7]; first compound 20 µM): 0.706
relative viability ([8]; first compound 0.2 µM): 1.06
relative viability ([8]; first compound 0.6325 µM): 0.852
relative viability ([8]; first compound 2 µM): 0.853
relative viability ([8]; first compound 6.325 µM): 0.975
relative viability ([8]; first compound 20 µM): 1
relative viability ([9]; first compound 0.2 µM): 1.11
relative viability ([9]; first compound 0.6325 µM): 0.893
relative viability ([9]; first compound 2 µM): 0.665
relative viability ([9]; first compound 6.325 µM): 0.997
relative viability ([9]; first compound 20 µM): 0.891
relative viability ([10]; first compound 0.2 µM): 0.494
relative viability ([10]; first compound 2 µM): 0.378
relative viability ([10]; first compound 6.325 µM): 0.234
relative viability ([10]; first compound 20 µM): 0.0997
relative viability ([11]; first compound 0.2 µM): 0.599
relative viability ([11]; first compound 0.6325 µM): 0.471
relative viability ([11]; first compound 2 µM): 0.48
relative viability ([11]; first compound 6.325 µM): 0.406
relative viability ([11]; first compound 20 µM): 0.104
relative viability ([12]; first compound 0.2 µM): 1.31
relative viability ([12]; first compound 0.6325 µM): 0.898
relative viability ([12]; first compound 2 µM): 1.02
relative viability ([12]; first compound 6.325 µM): 1.15
relative viability ([12]; first compound 20 µM): 1.02
relative viability ([13]; first compound 0.2 µM): 1.14
relative viability ([13]; first compound 0.6325 µM): 0.892
relative viability ([13]; first compound 2 µM): 0.738
relative viability ([13]; first compound 6.325 µM): 0.883
relative viability ([13]; first compound 20 µM): 0.822
relative viability ([14]; first compound 0.2 µM): 1.36
relative viability ([14]; first compound 0.6325 µM): 0.817
relative viability ([14]; first compound 6.325 µM): 1.09
relative viability ([14]; first compound 20 µM): 1.06
relative viability ([15]; first compound 0.2 µM): 0.93
relative viability ([15]; first compound 0.6325 µM): 0.729
relative viability ([15]; first compound 2 µM): 0.837
relative viability ([15]; first compound 6.325 µM): 1.09
relative viability ([15]; first compound 20 µM): 0.114
relative viability ([16]; first compound 0.2 µM): 1.45
relative viability ([16]; first compound 0.6325 µM): 0.579
relative viability ([16]; first compound 2 µM): 0.898
relative viability ([16]; first compound 6.325 µM): 0.0132
relative viability ([16]; first compound 20 µM): 0.0052
relative viability ([17]; first compound 0.2 µM): 0.75
relative viability ([17]; first compound 6.325 µM): 0.991
relative viability ([17]; first compound 20 µM): 0.82
relative viability ([18]; first compound 0.2 µM): 0.989
relative viability ([18]; first compound 0.6325 µM): 0.867
relative viability ([18]; first compound 2 µM): 0.816
relative viability ([18]; first compound 6.325 µM): 0.851
relative viability ([18]; first compound 20 µM): 0.262
relative viability ([19]; first compound 0.2 µM): 1.15
relative viability ([19]; first compound 6.325 µM): 1.11
relative viability ([19]; first compound 20 µM): 0.999
